Measurements published in US11504385B2, “Proteolysis targeting chimeric molecule, preparation method, and application” (CHINA PHARMACEUTICAL UNIVERSITY, priority 2019, dated 2022).

Assays:
BCR-ABL fusion protein = target: T1, BCR-ABL fusion protein (Homo sapiens, UniProt P00519+P11274+Q96SW2, E27K); test: Immunoblotting, degradation of BCR-ABL protein in K562 cells; format: cell-based; conditions: for inhibition of expression of BCR-ABL and/or CRBN protein: BCR-ABL and/or CRBN positive leukemia K562 cells, to varying degrees
T1 construct: By using BCR-ABL and CRBN positive K562 cell lines; endogenous in cells; host or cells: K562
Experimental: (§1) Initially, researchers synthesized a 2C compound (FIG. 2A), which is a small molecule with the shortest joining chain (n=1). By using BCR-ABL and CRBN positive K562 cell lines, degradation of ABL and BCR-ABL proteins in the cells under the action of the compound was tested by immunoblotting. […] Then, the researchers tried to extend the joining chain (increasing the value of n).
(§2) In order to test the degradation effect of the compound 4C on c-ABL and BCR-ABL proteins in K562 cells, the researchers performed an immunoblotting experiment. […] In order to exclude the possibility that the compound 4C affected the ABL gene to generate false positive expression, the researchers used RT-qPCR in K562 cells to study the expression of the ABL gene.
The operation method of the immunoblotting experiment is as follows: […]
(§3) The medium was aspirated from the culture; the cells were washed with 1*PBS; and the cells were aspirated.
(§4) A weak RIPA lysate (100 μL) was added to lyse the cells for 40 min.
(§5) The sample was centrifuged at 13000 rpm, 4° C. for 15 min; 80 μl of supernatant was taken and added to 20 μl of loading buffer; the reaction solution was heated at 100° C. for 8 minutes; and the sample was placed on ice and cooled.
(§6) […] of sample was loaded on 10% SDS-PAGE gel. The sample was transferred to a PVDF membrane by a wet process.
(§7) A membrane was placed in 25 ml of blocking buffer and blocked at room temperature for 1 hour.
(§8) The membrane and the primary antibody (according to the appropriate dilution and diluent recommended in the product description) were placed in 10 ml of primary antibody dilution buffer, and incubated overnight at 4° C. and gently shaken from time to time.
(§9) Anti-rabbit IgG, HRP-linked Antibody (#7074, in a ratio of 1:2000) and anti-biotin, HRP-linked Antibody (#7075, in a ratio of 1:1000-1:3000) are diluted with 10 ml of blocking buffer to detect biotinylated protein standards. The membrane was incubated with the diluent, and gently shaken and incubated at room temperature for 1 hour.
(§10) A developer solution and the membrane were incubated together for 1 minute, the excess solution was discarded (the membrane remained moist) and the membrane was exposed.
(§11) Next, we tested the difference in the activity of different configurations of compound 4C in degradation of ABL and BCR-ABL proteins. […] The operation method of the immunoblotting experiment is the same as above.

ABL = target: T2, ABL (Homo sapiens, UniProt P00519); test: Immunoblotting, degradation of ABL protein in K562 cells; format: cell-based; conditions: 100 nM, 36 hours after administration
T2 construct: degradation effect of the compound 4C on c-ABL and BCR-ABL proteins in K562 cells; endogenous in cells; host or cells: K562
Experimental: as §1, §2
The operation method of the immunoblotting experiment is as follows:
K562 cells after administration were incubated for 24 hours.
as §3, §4, §5, §6, §7, §8, §9, §10, §11

T2 sequence (P00519 whole entry): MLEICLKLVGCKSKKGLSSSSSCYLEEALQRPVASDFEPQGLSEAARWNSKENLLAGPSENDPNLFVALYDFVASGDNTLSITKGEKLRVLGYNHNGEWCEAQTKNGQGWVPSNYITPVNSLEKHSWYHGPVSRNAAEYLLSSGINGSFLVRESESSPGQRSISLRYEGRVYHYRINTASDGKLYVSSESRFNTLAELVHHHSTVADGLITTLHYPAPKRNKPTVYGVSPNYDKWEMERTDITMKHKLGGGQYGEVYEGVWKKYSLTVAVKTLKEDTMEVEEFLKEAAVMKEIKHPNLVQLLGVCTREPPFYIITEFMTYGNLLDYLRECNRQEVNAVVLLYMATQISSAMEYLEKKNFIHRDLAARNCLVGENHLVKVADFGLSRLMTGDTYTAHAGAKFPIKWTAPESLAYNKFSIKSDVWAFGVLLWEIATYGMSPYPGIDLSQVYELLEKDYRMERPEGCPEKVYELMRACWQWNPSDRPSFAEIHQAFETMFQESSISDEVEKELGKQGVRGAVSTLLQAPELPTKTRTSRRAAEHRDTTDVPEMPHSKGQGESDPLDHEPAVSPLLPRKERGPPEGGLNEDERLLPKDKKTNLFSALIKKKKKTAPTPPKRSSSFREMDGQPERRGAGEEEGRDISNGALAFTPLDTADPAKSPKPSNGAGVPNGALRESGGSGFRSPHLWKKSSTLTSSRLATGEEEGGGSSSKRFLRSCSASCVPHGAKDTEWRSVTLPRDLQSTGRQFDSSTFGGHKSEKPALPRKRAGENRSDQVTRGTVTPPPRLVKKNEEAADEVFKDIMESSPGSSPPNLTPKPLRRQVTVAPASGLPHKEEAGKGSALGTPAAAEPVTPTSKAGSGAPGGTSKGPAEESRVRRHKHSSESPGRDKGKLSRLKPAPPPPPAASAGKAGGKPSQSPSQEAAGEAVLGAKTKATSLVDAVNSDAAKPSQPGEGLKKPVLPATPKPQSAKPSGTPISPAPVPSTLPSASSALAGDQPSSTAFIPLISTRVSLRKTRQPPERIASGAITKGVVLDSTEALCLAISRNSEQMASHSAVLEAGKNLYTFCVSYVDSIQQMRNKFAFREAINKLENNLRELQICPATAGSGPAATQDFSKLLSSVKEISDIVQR

SMILES | inhibition of expression of BCR-ABL and/or CRBN protein (BCR-ABL fusion protein) | level of BCR-ABL fusion protein (WB) (BCR-ABL fusion protein; K562 cells, 100 nM, 36 hours after administration) | level of the BCR-ABL protein (WB) (BCR-ABL fusion protein; K562 cells, 36 hours after administration, dose-effect) | level of the ABL protein (WB) (ABL)
Cc1nc(Nc2ncc(C(=O)Nc3c(C)cccc3Cl)s2)cc(N2CCN(CCCCCOc3ccc(/N=N/c4ccc(C(=O)Nc5cccc6c5CN(C5CCC(=O)NC5=O)C6=O)cc4)cc3)CC2)n1 (stereo not shown) [Compound 5C, (E)-N-(2-chloro-6-methylphenyl)-2-((6-(4-(5-(4-((4-((2-(2,6-dioxopiperidin-3-yl)-1-oxoisoindolin-4-yl)carbamoyl)phenyl)diazenyl)phenoxy)pentyl)piperazin-1-yl)-2-methylpyrimidin-4-yl)amino)thiazole-5-carboxamide] | can inhibit the expression | – | – | –
Cc1nc(Nc2ncc(C(=O)Nc3c(C)cccc3Cl)s2)cc(N2CCN(CCOc3ccc(/N=N/c4ccc(C(=O)Nc5cccc6c5CN(C5CCC(=O)NC5=O)C6=O)cc4)cc3)CC2)n1 (stereo not shown) [Compound 2C, (E)-N-(2-chloro-6-methylphenyl)-2-((6-(4-(2-(4-((4-((2-(2,6-dioxopiperidin-3-yl)-1-oxoisoindolin-4-yl)carbamoyl)phenyl)diazenyl)phenoxy)ethyl)piperazin-1-yl)-2-methylpyrimidin-4-yl)amino)thiazole-5-carboxamide] | can inhibit the expression | significantly reduced | down-regulate the level of the BCR-ABL protein in a dose-dependent manner | significantly reduced
Cc1nc(Nc2ncc(C(=O)Nc3c(C)cccc3Cl)s2)cc(N2CCN(CCCOc3ccc(/N=N/c4ccc(C(=O)Nc5cccc6c5CN(C5CCC(=O)NC5=O)C6=O)cc4)cc3)CC2)n1 (stereo not shown) [Compound 3C, (E)-N-(2-chloro-6-methylphenyl)-2-((6-(4-(3-(4-((4-((2-(2,6-dioxopiperidin-3-yl)-1-oxoisoindolin-4-yl)carbamoyl)phenyl)diazenyl)phenoxy)propyl)piperazin-1-yl)-2-methylpyrimidin-4-yl)amino)thiazole-5-carboxamide] | can inhibit the expression | – | – | –
Cc1nc(Nc2ncc(C(=O)Nc3c(C)cccc3Cl)s2)cc(N2CCN(CCCCCCOc3ccc(/N=N/c4ccc(C(=O)Nc5cccc6c5CN(C5CCC(=O)NC5=O)C6=O)cc4)cc3)CC2)n1 (stereo not shown) [Compound 6C, (E)-N-(2-chloro-6-methylphenyl)-2-((6-(4-(6-(4-((4-((2-(2,6-dioxopiperidin-3-yl)-1-oxoisoindolin-4-yl)carbamoyl)phenyl)diazenyl)phenoxy)hexyl)piperazin-1-yl)-2-methylpyrimidin-4-yl)amino)thiazole-5-carboxamide] | can inhibit the expression | – | – | –
